Bridges are numbered along the chain shown (N, C = ends). Where no end group is shown, it is not given here.
Assays:
beta-1 integrin = assay: Beta-1 integrin expression in cells from primary tumors; type: in vivo; settings: data not shown
From the text: FIG. 10A is a bar graph showing the relative expression levels of beta 1 (βI) integrin on the surface of tumor cells from animals with metastasis (Mets) or no metastasis (No mets).
To better understand the role of PKC inhibitors in reducing metastasis, tumor cells, cells from primary tumors in animals with metastasis (Mets) and without metastasis (No mets) were isolated and assayed for levels of beta-1 integrin (FIG. 10A). The levels of beta-1 integrin were reduced about 50% in animals with no metastasis.

[1] = Serum levels of liver enzymes AST and ALT in treated animals; type: in vivo
From the text: FIGS. 11A-11B are bar graphs showing the relative serum levels of liver enzymes aspartate transaminase (AST; FIG. 11A) and alanine transaminase (ALT; FIG. 11B) in animals treated with saline or TAT (untreated) or the αV5-3-TAT peptide (aV5-3). FIGS. 11C-11E are bar graphs showing the relative serum levels of white blood cells (FIG. 11C), lymphocytes (FIG. 11D), and neutrophils (FIG. 11E).

[2] = tested on: 4T1 murine mammary cancer cells; assay: Lung metastasis of luciferase-tagged 4T1 tumors in mice, imaging (relative light units); type: in vivo; settings: 4T1-luciferase tumor-bearing mice, osmotic pump, about 35 mg/kg/day, four weeks
Description: To determine whether specific PKC inhibitors could reduce the amount of PKC translocation/activation in vivo and thereby reduce tumor cell metastasis, animals were administered an αPKC peptide inhibitor, or appropriate control, via an implanted osmotic pump, following the injection of luciferase-tagged tumor cells. […] The data are summarized in the bar graph shown in FIG. 4, along with similar data relating to the use of a βIIV5-3-TAT conjugate peptide (βPKC; SEQ ID NO: 27). The extent of lung metastasis is expressed as relative light units.
Balb/c female mice (6 weeks old) were injected semi-orthotopically with 4T1 murine mammary cancer cells tagged with luciferase ([…] cells/100 μL). One week later, an osmotic minipump was implanted subcutaneously in each animal, for delivery of saline (control), TAT peptide (control, YGRKKRRQRRR, SEQ ID NO: 25), the peptide inhibitor αV5-3 (QLVIAN, SEQ ID NO: 6) attached via an N-terminal disulfide bond to TAT peptide (YGRKKRRQRRR-CC-QLVIAN, SEQ ID NO: 26).
In other experiments, the peptide inhibitor βIIV5-3 (QEVIAN, SEQ ID NO: 13) or εV1-2 (EAVSLKPT, SEQ ID NO: 20) is attached via an N-terminal disulfide bond to the TAT peptide (SEQ ID NOs: 27 and 28, respectively). The TAT control, αV5-3-TAT, βIIV5-3-TAT, or εV1-2-TAT conjugate peptides are administered at about 35 mg/kg/day for two and four weeks.
After two weeks of treatment with αV5-3-TAT, some animals were selected form imaging (IVIS® 29, Xenogen Corporation, Alameda, Calif.) and analysis, with the remaining animals imaged after four weeks of treatment.
FIG. 4 is a bar graph showing the extent of lung metastasis, expressed as relative light units (based on imaging as exemplified in FIG. 3), in tumor-bearing mice treated for four weeks with saline, the αV5-3-TAT conjugate peptide (αPKC), or the βIIV5-3-TAT conjugate peptide (βPKC). The extent of lung metastasis, quantified approximately by the relative light units, for mice treated with saline, the αPKC inhibitor, and the βIIV5-3 PKC inhibitor peptide is shown. The extent of lung metastases is reduced in the animals treated with the αPKC inhibitor.

tumor cells = assay: Survival of animals after intravenous administration of tumor cells; type: in vivo, mice; settings: versus saline (PBS)
Description: FIG. 9 is a graph showing the percent surviving animals in the time (in days) following intravenous administration of tumor cells. The mice were treated with saline (squares; PBS) or the αV5-3-TAT peptide (circles; peptide).

4T1 tumor cells = assay: Growth of primary tumors in vivo (number of tumor cells at primary site of injection); design: species or system mice; settings: animals injected with 4T1 tumor cells, FIG. 6A, versus saline
Description: FIG. 6A is a bar graph showing the affect of saline, the αV5-3-TAT conjugate peptide (αPKC), or the βIIV5-3-TAT conjugate peptide (βPKC) on the growth rate of primary tumors in vivo.
To determine if the effects observed with the α and βIIPKC peptide inhibitors was due to a decrease in metastasis as opposed to a decrease in primary tumor growth, animals injected with 4T1 tumor cells were treated with saline, the αV5-3-TAT conjugate peptide (αPKC), or the βIIV5-3-TAT conjugate peptide (βPKC) and the number of tumors cells at the primary site of injection were determined.

With “YGRKKRRQRRR-CC-QLVIAN (YGRKKRRQRRRCCQLVIAN; disulfide 12-13 (inferred)) [αV5-3-TAT]” the beta-1 integrin expression (beta-1 integrin) was “tended to decrease beta-1 integrin expression but the amount was not statistically significant”, the “decrease of relative serum level of aspartate transaminase (AST)” value ([1]; treated animals versus saline or TAT, FIG. 11A) was “about 5 fold” and the “decrease of relative serum level of alanine transaminase (ALT)” value ([1]; treated animals versus saline or TAT, FIG. 11B) was 4-5 fold. The “serum AST/ALT levels (marker of damage or toxicity of the liver)” value ([1]; tumor-bearing treated animals) was “reversed abnormally elevated level of serum AST/ALT levels (a marker of damage or toxicity of the liver) to the normal range”, the “effect on lung metastasis compared to control animals (in words)” value [2] was “reduced” and the “reduction of lung metastasis compared to control animals” value [2] was 4 to 5 fold. The survival time (tumor cells) was “longer survival times” and the “reduction in the number of cells at the primary tumor site” value (4T1 tumor cells) was “two-fold”.
